Reference: patent publication US20020192223A1 (priority 1989, published 2002)

Columns and labels:
[1] = tested on: L2987 human lung tumor xenografts; test: Test V in vivo activity of relaxed BR64 and L6 conjugates; design: species or system BALB/c nu/nu mice; settings: optimized doses of adriamycin
Protocol: The in vivo antitumor activity of immunoconjugates of adriamycin and relaxed BR64 or relaxed L6 was evaluated.
Congenitally athymic female mice of BALB/c background (BALB/C nu/nu; Harlan Sprague-Dawley, Indianapolis, Ind.) were used. Mice were housed in Thoren caging units on sterile bedding with controlled temperature and humidity. Animals received sterile food and water ad libitum.
The L2987 human tumor line was established as tumor xenograft models in athymic mice. The tumor line was maintained by serial passage in vivo. Tumors were measured in 2 perpendicular directions at weekly or biweekly intervals using calipers. Tumor volume was calculated according to the equation: [formula]
In general, there were 8-10 mice per control or treatment group. Data are presented as median tumor size for control or treated groups. Antitumor activity is expressed in terms of gross log cell kill (“LCK”) where: [formula] […]
For animals bearing the L2987 human lung tumor, therapy was typically initiated when the median tumor size was 75 mm^3(12-14 days after tumor implant). The average TVDT was 4.8±0.9 days and antitumor activity was assessed at a tumor size of 500 mm^3. […]
Materials under investigation were administered by the ip or iv route. […] Compounds were administered on a mg/kg basis calculated for each animal, and doses are presented as mg/kg of equivalent adriamycin/injection. […]

[2] = tested on: L2987 lung tumor xenografts; test: BR96-DOX against established subcutaneous xenografts; format: in vivo, athymic mice
Protocol: Athymic rats were transplanted subcutaneously with human lung adenocarcinoma L2987, colon carcinoma RCA, or breast carcinoma MCF7 and permitted to grow. […]
(§1) Mice and rats were administered with BR96-DOX by three injections, each injection being about four days apart. Mice which were injected intraperitoneally (IP) were given 20 mg/kg of BR96-DOX. Mice which were injected intravenously were given 10 mg/kg of BR96. Intravenous (IV) injection involved less volume of BR96 because of the constraints of injection volume, namely, only 10 mg/kg was administrable by IV.
(§2) Controls One set of controls included untreated mice and mice that received (1) DOX (at doses optimized to produce maximal antitumor activity in each model); (2) unconjugated BR96; (3) mixtures of BR96 and DOX; and (4) DOX conjugated to either normal human IgG or the control MAb SN7. Doses of DOX and MAb are presented as mg/kg/[…].
(§3) Treatment with BR96-DOX consistently cured most mice bearing L2987 (FIG. 46A) or RCA (FIG. 46B) tumors. […] Complete tumor regression (CR) refers to a tumor that for a period of time is not palpable. Partial tumor regression (PR) means a decrease in tumor volume to ≦50% of the initial tumor volume.

[3] = tested on: L2987 human lung carcinoma, subcutaneous; test: BR96-DOX against human lung tumors implanted in rats; format: in vivo, athymic Rowett rats
Description: Athymic mice and athymic Rowett rats (Harlan Sprague Dawley) were used in this study.
(§4) Athymic rats were transplanted subcutaneously with human lung adenocarcinoma L2987, colon carcinoma RCA, or breast carcinoma MCF7 and permitted to grow. Therapy (3 treatments 4 days apart) started 14 to 28 days after tumor transplantation when tumors were well established, i.e., when the tumors were 50 to 100 mm^3 in size.
Another set included rats using the protocol used in control mice.

parental cell line = test: In vitro 3[H]-thymidine incorporation IC50; format: cell-based
[4] = tested on: MCF7 human breast tumor xenografts; test: Test VI in vivo activity of ChiBR96-ADM conjugates; design: species or system athymic mice; settings: ADM 6 mg/kg, iv
Description: (§5) In general, there were 8-10 mice per control or treatment group. Data are presented as median tumor size for control or treated groups. Antitumor activity is expressed in terms of gross log cell kill (“LCK”) where: [formula]
(§6) T−C is defined as the median time (days) for treated tumors to reach target size minus the median time for control tumors to reach target size and TVDT is the time (days) for control tumors to double in volume (250-500 mm^3). Partial tumor regression (“PR”) refers to a decrease in tumor volume to ≦50% of the initial tumor volume; complete tumor regression (“CR”) refers to a tumor which for a period of time is not palpable; and cure is defined as an established tumor which is not palpable for a period of time ≧10 TVDTs.
(§7) Materials under investigation were administered by the ip or iv route. Adriamycin was diluted in normal saline; antibody and antibody/adriamycin conjugates were diluted in phosphate buffered saline. Compounds were administered on a mg/kg basis calculated for each animal, and doses are presented as mg/kg of equivalent adriamycin/injection. Immunoconjugates were administered on a q4dx3 schedule.
(§8) The antitumor activity of ChiBR96-ADM conjugates was evaluated against established human lung (“L2987”), breast (“MCF7,” obtainable from the ATCC under the accession number ATCC HTB 22; see also I. Hellström, et al., Cancer Research 50:2183 (1990)), and colon (“RCA” from M. Brattain, Baylor University; see also I. Hellström, et al., Cancer Research 50:2183 (1990)) tumors.
(§9) Animals were maintained and tumor xenograft models were established for the MCF7 and RCA and the L2987 human tumor lines as described for the L2987 in Test V. Materials were administered as described in Test V.
The MCF7 tumor is an estrogen-dependent human breast tumor line. Athymic mice were implanted with 0.65 mg (65 day release rate) estradiol pellets (Innovative Research of America, Toledo, Ohio) on the day of tumor implant. Therapy was initiated when the median tumor size was 100 mm^3 (typically 13 days after tumor implant).

[5] = tested on: cells obtained from tumors that grew back after BR96-DOX induced regression; test: In vitro 3[H]-thymidine incorporation IC50; format: cell-based; settings: treatment (regrown tumor cells)
[6] = tested on: L2987 spheroids inoculated IV; test: BR96-DOX against large disseminated tumors; format: in vivo, athymic mice; settings: DOX 8 mg/kg
Description: L2987 lung carcinoma cells were selected in vitro for the ability to grow as multicellular spheroids. When injected IV into athymic mice or rats, tumors developed at various sites, including lymph nodes, lung, spleen, liver, brain, subcutaneously, and ascites was formed in some animals.
Mice were inoculated IV with L2987 spheroids.
The burden of disseminated disease in these animals was so far advanced that 50% of control animals died during the first 6 days of the experiment. […] Surviving mice were sacrificed 200 days after cell inoculation and sections of lung, lymph nodes, spleen, colon, jejunum, kidney, liver, brain, and heart were examined by histology.

[7] = Maximum tolerated dose, 3 injections 4 days apart; format: in vivo, mice; settings: equivalent DOX dose
Protocol: The maximum tolerated dose (MTD) (equivalent DOX dose) of the BR96-DOX conjugate (administered as 3 injections 4 days apart) was 20 mg/kg administered intraperitoneally (IP). When administered intravenously (IV) the MTD was ≧10 mg/kg. This was the maximum dose that could be administered IV because of the constraints of injection volume.
The MTD of unconjugated DOX (8 mg/kg IV and 4 mg/kg IP) was lower than that of the BR96-DOX conjugate. Unconjugated DOX administered IV at the MTD produced a delay in tumor growth but no tumor regressions and if the dose was reduced to 50% of the MTD, DOX had no effect.

[8] = tested on: RCA colon carcinoma xenografts; test: BR96-DOX against established subcutaneous xenografts; format: in vivo, athymic mice
Protocol: as §4, §1, §2, §3

[9] = tested on: L2987 human lung tumor xenografts; test: Test VI in vivo activity of ChiBR96-ADM conjugates; design: species or system athymic mice
Description: as §5, §6, §7, §8, §9
For animals bearing the L2987 human lung tumor, therapy typically was initiated when the median tumor size was 75 mm^3 (12-14 days after tumor implant). The average TVDT was 4.8±0.9 days and antitumor activity was assessed at a tumor size of 500 mm^3. In several experiments therapy was initiated when L2987 tumors were 225 mm^3 in size.

[10] = tested on: RCA human colon tumor xenografts; test: Test VI in vivo activity of ChiBR96-ADM conjugates; design: species or system athymic mice
Description: as §5, §6, §7, §8, §9
For animals bearing the RCA colon tumor, therapy was initiated 15 days after tumor implant when the median tumor size was 75 mm^3. The average TVDT for RCA tumor xenografts was 9.5±1.5 days and antitumor activity was assessed at 400 mm^3.

[11] = Solubility of the hydrazone during conjugation; format: physicochemical; settings: PBS
Protocol: 3. The solution is transferred back to a round bottom flask equipped with a magnetic stirrer and kept in ice. The solution continuously is blanketed by nitrogen. The volume of the solution is noted. […] A solution of maleimidocaproyl hydrazone of adriamycin in distilled water (5 mg/mL, 6.3×10^−3 M) is prepared (notes 7, 8). The amount (in mL) of this solution needed for the conjugation is determined by the formula: [formula]
10. Brief applications of a sonicator will facilitate dissolution in distilled water. The resulting solution is stable.

For `COc1cccc2c1C(=O)c1c(O)c3c(c(O)c1C2=O)C[C@@](O)(C(=O)CO)C[C@@H]3O[C@H]1C[C@H](N)[C@H](O)[C@H](C)O1` [Adriamycin, adriamycin], the LCK [1] was 1.1 LCK, the “tumor regressions: Complete” value ([2]; L2987, q4dx3, DOX 8.0, no MAb) was 0% and the “tumor regressions: Cures” value ([2]; L2987, q4dx3, DOX 8.0, no MAb) was 0%. For the same molecule, the “tumor regressions: Partial” value ([2]; L2987, q4dx3, DOX 8.0, no MAb) was 0.8 ± 0.8%, the antitumor activity ([2]; L2987 tumors 250 to 800 mm^3, optimal dose of DOX) was “antitumor activity was not observed” and the “MTD of free DOX” value ([3]; 3 injections 4 days apart) was 4 mg/kg. For the same molecule, the cures ([3]; rats, 4 mg/kg, 3 injections 4 days apart (MTD of free DOX)) was 25%, the IC50 (parental cell line) was 0.3 ± 0.2 µM and the CR [4] was 0%. It also gave a Cure [4] of 0%, an LCK [4] of 1.4 and a PR [4] of 0%. For the same molecule, the IC50 [5] was 0.4 ± 0.1 µM, the “day by which 100% of the mice were dead” value [6] was 140 days and the “maximum tolerated dose (MTD)” value ([7]; intraperitoneally (IP)) was 4 mg/kg. The “maximum tolerated dose (MTD)” value ([7]; intravenously (IV)) was 8 mg/kg, the “activity against established RCA tumors (growth delay or regressions)” value ([8]; DOX alone) was “not active” and the “tumor regressions: Complete” value ([8]; RCA, q4dx3, DOX 8.0, no MAb) was 0%. For the same molecule, the “tumor regressions: Cures” value ([8]; RCA, q4dx3, DOX 8.0, no MAb) was 0%, the “tumor regressions: Partial” value ([8]; RCA, q4dx3, DOX 8.0, no MAb) was 0% and the “tumor regressions: Complete” value ([8]; mouse, in vivo) was 0%. The “tumor regressions: Cures” value ([8]; mouse, in vivo) was 0%, the “tumor regressions: Partial” value ([8]; mouse, in vivo) was 0% and the CR ([9]; ADM 8 mg/kg, iv (Table 16)) was 0%. For the same molecule, the Cure ([9]; ADM 8 mg/kg, iv (Table 16)) was 0%, the PR ([9]; ADM 8 mg/kg, iv (Table 16)) was 0% and the LCK ([9]; ADM 8 mg/kg, iv, q4dx3 (Table 16)) was 1.5. It also gave a CR ([9]; ADM 8 mg/kg, no antibody, iv) of 0%, a Cure ([9]; ADM 8 mg/kg, no antibody, iv) of 0% and a PR ([9]; ADM 8 mg/kg, no antibody, iv) of 3.6%. For the same molecule, the LCK ([9]; ADM 8 mg/kg, no antibody, iv, q4dx3 (55 mice)) was 1-1.8, the LCK ([9]; FIG. 57, optimized adriamycin (8 mg/kg)) was 1.0 LCK and the LCK ([9]; FIG. 58, optimized adriamycin) was 1.6 LCK. It also gave a CR ([10]; 10/405 mg/kg, ip) of 0%, a Cure ([10]; 10/405 mg/kg, ip) of 0% and an LCK ([10]; 10/405 mg/kg, ip) of 0. For the same molecule, the PR ([10]; 10/405 mg/kg, ip) was 0%, the CR ([10]; ADM 8/0 mg/kg, iv) was 0% and the Cure ([10]; ADM 8/0 mg/kg, iv) was 0%. For the same molecule, the LCK ([10]; ADM 8/0 mg/kg, iv) was 0.4 and the PR ([10]; ADM 8/0 mg/kg, iv) was 0%.

For `COc1cccc2c1C(=O)c1c(O)c3c(c(O)c1C2=O)C[C@@](O)(/C(CO)=N/NC(=O)CCCCCN1C(=O)C=CC1=O)C[C@@H]3O[C@H]1C[C@H](N)[C@H](O)[C@H](C)O1` [hydrazone, Maleimidocaproylhydrazone of Adriamycin], the solubility [11] was “not very soluble in PBS”.
